Measurements published in patent US20250179584A1, “PRECISION THERAPY FOR THE TREATMENT OF CANCER” (Novartis AG, priority 2022, published 2025).

How the values were obtained:
[1] = system: BRAF mutant and CRAF kinases; conditions: cited from earlier work
[2] = system: unresectable stage III/IV metastatic melanoma resistant to anti-PD (L)-1 therapy; conditions: monotherapy, 162 patients, cited from earlier work
[3] = system: cell lines that contain a variety of mutations that activate MAPK signaling; conditions: cited from earlier work
[4] = system: pan-RAS codon Q61/G13R mutant models (NSCLC, melanoma, PDAC, rhabdomyosarcomas); conditions: independently of the mutated RAS gene and tissue origin
[5] = system: solid tumors (salivary gland tumor and NSCLC) harboring pan-RAS codon Q61 or G13R mutations; format: in vivo, human; conditions: LXH254 single agent
[6] = system: NRAS mutated melanoma; format: in vivo, human; conditions: single agent, 10 patients, doses 400-1200 qd and 200-800 bid, data cut May 31, 2021
Source text: Clinical data further supports the pre-clinical findings.

[7] = system: KRAS-mutant models; conditions: several KRAS-mutant models, well-tolerated doses; cited from earlier work
[8] = system: KRAS G12, G13C and G13D mutant NSCLC; conditions: single agent, second line; cited from earlier work
[9] = system: advanced melanoma with NRAS mutation; conditions: trametinib monotherapy, 7 patients with NRAS mutation; cited from earlier work
[10] = system: NRAS mutated melanoma; conditions: cited from earlier work

Cc1ccc2c(Nc3cccc(Cl)c3F)nccc2c1NC(=O)c1csc2c(N)ncnc12 [Belvarafenib, 4-amino-N-(1-((3-chloro-2-fluorophenyl)amino)-6-methylisoquinolin-5-yl) thieno[3,2-d]pyrimidine-7-carboxamide]
selectivity [1]: high selectivity

Ipilimumab: anti-CTLA-4 therapy
objective response rate (ORR) ([2]; irrespective of mutation status): 13%
median overall survival (mOS) [2]: 8.8 months
median progression free survival (PFS) [2]: 2.6 months

Cc1ccc(NC(=O)c2ccnc(C(F)(F)F)c2)cc1-c1cc(OCCO)nc(N2CCOCC2)c1 [naporafenib, N-(3-(2-(2-hydroxyethoxy)-6-morpholino-pyridin-4-yl)-4-methylphenyl)-2-(trifluoromethyl) isonicotinamide]
anti-proliferative activity [3]: demonstrated anti-proliferative activity
activity in non-clinical models [4]: consistent activity
response to single agent therapy [5]: exceptional responders
SDs (stable disease) [6]: 4
responses [6]: no responses
tumor response in vivo [7]: tumor regression

CC(=O)Nc1cccc(-n2c(=O)n(C3CC3)c(=O)c3c(Nc4ccc(I)cc4F)n(C)c(=O)c(C)c32)c1 [trametinib, N-(3-{3-cyclopropyl-5-[(2-fluoro-4-iodophenyl)amino]-6,8-dimethyl-2,4,7-trioxo-3,4,6,7-tetrahydropyrido[4,3-d]pyrimidin-1 (2H)-yl}phenyl) acetamide]
superiority against standard of care docetaxel [8]: failed to demonstrate superiority
responses [9]: no responses

Cn1cnc2c(F)c(Nc3ccc(Br)cc3F)c(C(=O)NOCCO)cc21 [binimetinib]
ORR ([10]; 402 patients, untreated (~79%) and previously treated with immunotherapy (~21%)): 15%
mOS ([10]; 402 patients): 11 months
mPFS ([10]; 402 patients): 2.8 months
anti-tumor activity ([10]; single agent MEK inhibitor, NEMO study): limited anti-tumor activity
